According to US6864271B2, “Synergistic combinations including N-acylated 4-hydroxyphenylamine derivatives” (The Foundation for the LSU Health Sciences Center, priority 2002, dated 2005):

Experiments:
[1] = tested on: mice; test: abdominal stretch assay (i.p. acetic acid); format: in vivo, mouse; details: oral, FIG. 1; for number of abdominal stretches (percentage of control): 55 min before i.p. 10 ml/kg 0.4% acetic acid, counted 10 min
[2] = tested on: mice; details: cited from earlier work
[3] = tested on: C57/b16 mice; details: prior work (Paul et al., 1998; Bazan patents); cited from earlier work
[4] = tested on: mice; details: background statement; cited from earlier work
[5] = tested on: C57/b16 mice; test: hepatotoxicity study, transaminase activity after oral dosing; details: 24 hours after oral dose in corn oil; acetaminophen/SCP-1 3.7 mmole/kg, codeine 50 mg/kg; FIG. 3
[6] = background statement; cited from earlier work
[7] = background statement; cited from earlier work; remark: listed apart in the source

Structure (SMILES) | number of abdominal stretches (percentage of control) [1] | LD50 ([2]; mice) [mmol/kg] | analgesic potency compared with acetaminophen ([1]; abdominal stretch assay, mice) | hepatotoxicity [3] | potency compared with acetaminophen, abdominal stretch [4] | toxicity compared with acetaminophen ([2]; Paul et al., 1998) | GPT activity in serum [5] | potency compared with acetaminophen, Freund's adjuvant-induced inflammation [6] | potency compared with acetaminophen, formalin [7]
CC(=O)Nc1ccc(O)cc1 [acetaminophen, reference compound] | dose-dependent decrease | 3.7 | – | – | – | – | – | – | –
O=C(CN1C(=O)c2ccccc2S1(=O)=O)Nc1ccc(O)cc1 [SCP-1] | dose-dependent decrease | – | significantly greater than acetaminophen | lower in hepatotoxicity | more potent | lower in toxicity | neither SCP-1 nor codeine, nor the combination of both, produced any significant increase | more potent | more potent
COc1ccc2c3c1O[C@H]1[C@@H](O)C=C[C@H]4[C@@H](C2)N(C)CC[C@@]341 [codeine, reference compound] | dose-dependent decrease | – | – | – | – | – | neither SCP-1 nor codeine, nor the combination of both, produced any significant increase | – | –
